In US20230151065A1, “MULTI-DISULFIDE-BOND LONG-CHAIN PEPTIDE WITH NEURO[…], PHARMACEUTICAL COMPOSITION AND APPLICATION” (priority 2018, published 2023):
Where no end group is shown, it is not given here.

Key:
[1] = test system: primary cultured SD fetal rat cortical neurons after OGD damage; experiment: OGD damage of cortical neurons, CCK-8 activity; format: cell-based; settings: OGD 2 h, 24 h reoxygenation; ABPPk2 8, 40, 200 ng/ml; effect more obvious as dose increased
Protocol: (§1) The suspension was filtered with a 400-mesh screen, centrifuged at 1000 rpm for 5 min, and blown to form the single cell suspension. DMEM high glucose complete medium (containing 10% fetal bovine serum) was inoculated in a culture dish or culture plate pre-coated with polylysine (PLL) to culture in 5% CO2 incubator with saturated humidity at 37° C. After the cells were cultured for 4 h to adhere to the wall, the cells were cultured with neuron culture medium (neurobasal+2% B27) for 3 d to observe the growth of neurons. The culture medium containing cytarabine (the final concentration of cytarabine was 2.5 μg/ml) was substituted with half quantity to culture for 3d to inhibit the growth of glial cells and miscellaneous cells to obtain purely cultured primary cortical nerve cells. The purity of the cortical neurons was identified by immunocytochemical staining as more than 90%.
After the cortical neurons were cultured to the 7th day, the original culture medium was sucked out, and the cells were rinsed twice with sugar-free DMEM basal medium, for 5 min each time. […]
Analysis of cortical neuron activity after OGD damage and drug treatment: cortical neurons were inoculated into 96-well plates at 1×10^6 cells/ml; and 100 μl cell suspension was added to each well. […] The absorbance (OD) value of the sample in each well was measured on the microplate reader at 450 nm wavelength. […]

[2] = test system: primary cultured SD fetal rat cortical neurons after OGD damage; experiment: OGD damage of cortical neurons, mitochondrial membrane potential (JC-1, flow cytometer); format: cell-based; settings: OGD 2 h, 24 h reoxygenation; ABPPk2 8, 40, 200 ng/ml; obvious dose-effect relationship
Protocol: as §1, with “90%. […]” for “90%.”
(5) Effect of ABPPk2 on mitochondrial membrane potential of cortical neurons after OGD damage: cortical neurons were inoculated in a 6-well plate at 1×10^6 cells/ml; 2 ml of cell suspension was added to each well; and the cortical neurons were cultured to the 7th day. […] The mitochondrial membrane potential of the cortical neurons after OGD damage was detected by a JC-1 staining kit and a flow cytometer. […]

[3] = test system: primary cultured hippocampal neurons; experiment: Synapse formation in hippocampal neurons (SYN/PSD95 staining, PSD95 Western blot); format: cell-based, rat; settings: treatment with ABPPk2 for 8 d
Protocol: (1) Primary culture of fetal rat hippocampal neurons: after a rat pregnant for 17 days was anesthetized, a fetal rat was taken out under sterile conditions; the brain of the fetal rat was taken out on ice; the hippocampus was carefully taken out under a dissecting microscope; and the blood vessel membranes were removed. 0.125% trypsin/EDTA was digested at 37° C. for 10 min, and the digestion was stopped by adding the DMEM complete medium containing 10% FBS. Cell debris were removed through centrifugal at 1000 rpm for 5 min; the DMEM complete medium was added to resuspend the cells; the cells were gently blown until a single cell suspension was formed; and the cells were inoculated at an appropriate density on a culture plate (dish) pre-coated with polylysine (PLL) and cultured at 37° C., 5% CO2 incubator. […]
(7) Promotion effect of ABPPk2 on synapse formation in primary cultured hippocampal neurons. […] The field of view was randomly selected and photographed under the laser confocal microscope, and the number of synaptic cristulas on every 100 μm neurites was counted. The effect of ABPPk2 on the expression of PSD95 was analyzed by Western blot. The steps were as follows: the total protein was extracted and the total protein concentration was determined by Bradford method. […]

For “Cys-Leu-Glu-Ser-Gly-Thr-Ser-Cys-Ile-Pro-Gly-Ala-Gln-His-Asn-Cys-Cys-Ser-Gly-Val-Cys-Val-Pro-Ile-Val-Thr-Ile-Phe-Tyr-Gly-Val-Cys-Tyr (CLESGTSCIPGAQHNCCSGVCVPIVTIFYGVCY; disulfide (positions not given here); not fully specified (bridges); also: three disulfide bonds, pairing not given here) [ABPPk2, 33 amino acid polypeptide isolated from the extract of Achyranthes bidentata Blume, three pairs of disulfide bonds]”, the “cortical neuron activity (CCK-8)” value [1] was “can effectively antagonize the decrease of cortical neuron activity caused by OGD damage”, the mitochondrial membrane potential [2] was “can alleviate the decline in mitochondrial membrane potential” and the “number of the formed synapses” value [3] was “the number of the formed synapses can be significantly increased”. The “expression of PSD95 protein” value ([3]; Western blot) was “up-regulated”.
